Here are results for one molecule from patent publication US9943599B2, “Therapeutic applications of calcium electroporation to effectively induce tumor necrosis” (Herlev Hospital, priority 2011, dated 2018).

Molecules are shown by their SMILES.

Series [1] deals with H69 (human small cell lung cancer) tumors. Briefly: Hypothetical volume test of injected solution. The series is classed as in vivo, NMRI-Foxn1^nu mice. The settings on record: with electroporation. On the procedure: H69, a human small cell lung cancer cell line stably transfected with EGFP regulated by the cytomegalo-virus (CMV) promoter, is used for the in vivo experiments. The cells are tested by rapid MAP27 panel (Taconic, Hudson N.Y.) before use without signs of infection. Cells are maintained in vitro as described in Example 1. 1.5×10^6 cells/100 μl PBS are injected subcutaneously in both flanks of NMRI-Foxn1^nu mice (Harlan, Indianapolis, Ind.) that are 9-11 weeks old. Tumor pieces are transplanted from donor mice to the right flank of nude mice. HYPNORM™-DORMICUM™ (fentanyl/fluanisone/midazolam; VetaPharma, Leeds, U K and Roche, Basel, Switzerland) is used for anesthesia complemented with RIMADYL® (Carprofen) (Pfizer ApS, Ballerup, Denmark) […] as lidocaine (Region Hovedstadens Apotek, Herlev, Denmark) in the incision. […] Tumor volume is calculated as ab^2n/6, where “a” is the largest diameter and “b” is the largest diameter perpendicular to “a”. […] Background fluorescence is measured on the opposite flank and then the background fluorescence level is subtracted from fluorescence intensity of tumors. Finally, all fluorescence intensity below 100 normalised counts (NC) is filtered away using ART, Saint-Laurent, Quebec OPTIX® Optiview version 2.02 software (ART, Saint-Laurent, Quebec).
The differences in tumor volume and fluorescence intensity between tumors injected with the different solution volumes in the 4 treatment groups are evaluated as repeated measurements, validated and analysed with an exponential decrease model with Bonferroni correction for multiple comparisons using SAS® software version 9.1 (SAS, Cary, N.C.). ‘Group’, ‘days’ and ‘mouse’ are considered as factors and baseline levels of tumor volume or fluorescence intensity are used as covariant.

Series [2] relates to HT29 (human colon cancer) tumors. The series is described as follows: Fraction of necrosis after calcium electroporation, HT29 tumors. The series is classed as in vivo, NMRI-Foxn1^nu mice. On the procedure:
LPB, a murine sarcoma cell line, B16, a murine malignant melanoma cell line, MDA-MB231, human a breast cancer cell line, HT29, a human colon cancer cell line, and SW780, a human bladder cancer cell line were used for the in vivo experiment. The cells were tested by rapid MAP27 panel (Taconic, Hudson N.Y.) before use without signs of infection. 2×10^5 cells (B16), 8×10^5 cells (LPB), 2.5×10^6 cells (MDA-MB231), and 5×10^6 cells (HT29 and SW780) in 100 μl PBS were injected subcutaneously in the flank of NMRI-Foxn1^nu mice (Harlan, Indianapolis, Ind.) that were 9-11 weeks old. Mice were randomised at a tumor volume above 85 mm^3 and tumors were treated with injection of isotonic calcium-chloride solution (168 mM CaCI2) and electroporation (8 pulses of 1.0 kv/cm for 100 μs and a frequency of 1 Hz) using a 6 mm plate electrode and a square wave electroporator (CLINIPORATOR®, IGEA, Modena, Italy). Tumor volume was calculated as ab^2n/6, where a is the largest diameter and b is the largest diameter perpendicular to a. The injected volume was half of the tumor volume. […] The fraction of necrosis within the tumor was estimated from HE-sections by stereological point counting using a light microscope, evaluated by a pathologist, blinded with respect to treatment status.
The difference in fraction of necrosis at different time after treatment was assessed using student's t-test.

Series [3] has as its system CT26 (murine colon carcinoma) tumors. The series is described as follows: Calcium with sonoporation, CT26 tumor volume. The series is classed as in vivo, Balb/c mice. The method, then: CT26, a murine colon carcinoma cell line was used for the in vivo experiments. The cells were tested by mycoplasma detection kit (Sigma, St. Louis, Mo.) before use without signs of infection. Cells were maintained in vitro in DMEM culture medium (Sigma, St. Louis, Mo.) with 10% fetal calf serum (Sigma, St. Louis, Mo.), L-glutamine, penicillin and streptomycin at 37° C. and 5% CO2. All antibiotics were removed from culture media 24 hours before tumour inoculation. 1.0×10^6 cells/200 μl serum free DMEM were injected subcutaneously in the right flank of 6-8 week old female Balb/c mice, in condition weighing 16-22 g. Mice were randomised at an average tumor size of approximately 5.0 mm in largest diameter and tumors were treated with 1) injection of isotonic calcium-chloride solution (168 mM CaCl2) and sonoporation (3.5 W/cm^2 at 1 MHz and 100% duty cycle for 2 minutes) using a SONITRON® 2000 ultrasound apparatus (Rich-Mar, Inola, Okla.), 2) sonoporation alone (same parameters as above), 3) isotonic calcium-chloride solution injection, or 4) no treatment. Tumor volume was calculated as ab^2n/6, where a is the largest diameter and b is the largest diameter perpendicular to a. […]
The difference in tumor volume between the different treatment groups at different time after treatment was assessed using student's t-test.

As for `[Ca+2].[Cl-].[Cl-]` [calcium chloride], in series [1] (volume ratio 0.2, 004, 0.6 or 0.8), the tumors eliminated entry is given as “eliminates most of the tumors”. Further, the “ulceration of treated tumors” value in series [1] is listed as “occurs in most”. Moreover, in series [1] (all 4 injection volumes), the “fluorescence intensity of tumors” value is given as “decrease drastically”. The “fraction of necrosis in tumors, course” value in series [2] (168 mM CaCl2, half tumor volume, electroporation, first days after treatment) is recorded as “progressive necrosis”. In addition, the tumor re-growth result in series [2] (6 days after the treatment) is “re-growth”. Further, the treated tumors eliminated in series [3] (168 mM CaCl2, half tumor volume, sonoporation 3.5 W/cm^2, 1 MHz, 2 minutes, 7/8) is given as 88%. Besides, in series [3] (isotonic calcium-chloride injection alone (control)), the tumor volume result is “continues to increase”.
